23 compounds from US12297190B2, “Modulators of STING (stimulator of interferon genes)” (PFIZER INC., priority 2019, dated 2025) can be followed below.

For experiment [1], the target named is T1, STING (Homo sapiens, UniProt Q86WV6, G230A/H232R/R293Q/R71H).
T1 construct: host or cells: THP-1 and THP-1 Lucia ISG cells
Briefly: Phosphorylation of IRF3: THP-1 cell ELISA. It is filed as cell-based. The settings on record: THP-1 cells, 3 hours incubation, phospho-IRF3 ELISA; read-out: THP-1 CELL P-IRF3 EC50. As for the experimental part:
Phosphorylation of IRF3: THP-1 Cell ELISA
STING activation results in recruitment of TBK1 and phosphorylation of IRF3 transcription factor before induction of type I interferons. THP-1 cells (InvivoGen) were grown in RPMI media plus 2 mM L-glutamine, 10% fetal bovine serum, and 0.5% Pen-Strep. 10^4 cells were seeded in 96-well plates and incubated overnight 37° C., 5% CO2. Compounds serial diluted compounds in media (final 0.5% DMSO) were added to the cells and incubated for an additional 3 hours. After incubation, the plates were centrifuged at 2000 rpm for 5 min. The cells were then lysed in 100 μl RIPA buffer and vortexed for 30 minutes at room temperature. 25 μl of lysate was then transferred to clear polystyrene High Bind plates that had been previously coated with mouse anti-human IRF-3 capture antibody (BD Pharmigen), and allowed to incubate at 4° C. for 16 hours. The plates were then washed and incubated with rabbit anti-phospho-IRF3 detection antibody (Cell Signaling Technologies) for 1.5 hours at room temperature. Finally, an HRP-linked secondary antibody (Cell Signaling Technologies) was added for 30 min before the Glo Substrate Reagent (R&D Systems) was used generate the luminescent signal. The signal was measured using a Perkin-Elmer Envision microplate reader. Data were normalized to “% effect” with a positive control STING agonist that was known to maximize the phosphorylated IRF3 signal and the negative control was DMSO.

Experiment [2] addresses T1, STING. Kind of experiment: Interferon-β induction: THP-1 Lucia ISG reporter cell line. It is filed as cell-based. To be noted: THP-1 Lucia ISG cells, 24 hours incubation, luciferase reporter; read-out: THP-1 Lucia ISG Cells IFN-β EC50. As to the method:
Interferon-β Induction: THP-1 ISG Reporter Cell Line
THP-1 Lucia™ ISG cells (InvivoGen) express the secreted luciferase “Lucia” reporter gene under the control of an IRF-inducible composite promotor comprised of five interferon response elements. THP-1 Lucia™ ISG cells were grown in RPMI media plus 2 mM L-glutamine, 10% fetal bovine serum, and 0.5% Pen-Strep. Hygromycin B and Zeocin were present to maintain stable transfection. 10^4 cells were seeded in 96-well plates and incubated overnight 37° C., 5% CO2. 50 μL of serial diluted compounds in media (final 0.5% DMSO) was and incubated for an additional 24 hours. After incubation, the plates were centrifuged at 2000 rpm for 10 min. 50 μl of cell culture supernatant of each well was transferred to a white, opaque 96-well plate. One pouch of QUANTI-Luc™ (InvivoGen) powder was prepared in 25 mL of endotoxin-free water and 100 μL of prepared warm QUANTI-Luc solution were added to each well containing the supernatant. The luminescence signal was measured using a Perkin-Elmer Envision microplate reader. Data were normalized to “% effect” with a positive control STING agonist that was known to maximize the luciferase signal and the negative control DMSO.
On the technique in general: A reporter such as luciferase makes a cellular process visible.

For a further experiment, the target named is R232-STING (Homo sapiens, UniProt Q86WV6, H232R). Briefly: biochemical.

Counter-ions that a name gives are not always drawn.

In general, EC50 refers to the concentration needed to bring the measured effect to its halfway point. What is called Ki is a measure of affinity in units of concentration, obtained from inhibition or displacement. Lower therefore signals a stronger hold on the target.

Chain of R232-STING (Q86WV6 155-341 H232R): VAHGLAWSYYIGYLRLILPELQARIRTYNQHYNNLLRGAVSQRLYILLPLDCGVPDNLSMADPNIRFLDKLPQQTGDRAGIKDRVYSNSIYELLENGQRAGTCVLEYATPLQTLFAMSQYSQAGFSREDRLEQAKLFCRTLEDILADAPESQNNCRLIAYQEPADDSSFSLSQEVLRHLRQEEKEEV
T1 sequence (Q86WV6 whole entry R71H/G230A/H232R/R293Q): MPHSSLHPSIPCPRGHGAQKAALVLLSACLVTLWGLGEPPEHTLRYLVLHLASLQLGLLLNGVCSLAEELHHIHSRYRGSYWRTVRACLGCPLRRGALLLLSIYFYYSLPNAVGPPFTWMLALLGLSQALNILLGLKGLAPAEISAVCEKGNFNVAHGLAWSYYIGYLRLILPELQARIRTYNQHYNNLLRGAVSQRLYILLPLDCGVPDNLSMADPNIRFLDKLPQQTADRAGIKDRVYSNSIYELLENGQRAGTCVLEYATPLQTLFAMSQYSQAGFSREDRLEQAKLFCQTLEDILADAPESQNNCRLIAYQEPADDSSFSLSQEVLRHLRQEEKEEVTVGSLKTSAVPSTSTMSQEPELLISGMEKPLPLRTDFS

With `CCn1nc(C)cc1-c1n[nH]c(-c2cc(C(N)=O)cc3nn(C)cc23)n1` [Example C01, 4-[3-(1-ethyl-3-methyl-1H-pyrazol-5-yl)-1H-1,2,4-triazol-5-yl]-2-methyl-2H-indazole-6-carboxamide], the 50% effective concentration (EC50) is not below 100000 nM on STING [1] and 45300 nM on STING [2]. For the same compound, affinity at R232-STING was put at a Ki of 230 nM.

As for `Cc1cc(-c2n[nH]c(-c3cc(C(N)=O)cc4c3cnn4C)n2)n(CCC(=O)O)n1` [Example C03, 3-{5-[5-(6-carbamoyl-1-methyl-1H-indazol-4-yl)-1H-1,2,4-triazol-3-yl]-3-methyl-1H-pyrazol-1-yl}propanoic acid], the 50% effective concentration (EC50) on STING [1] was found to be 10900 nM; on STING [2], 8930 nM. The affinity on R232-STING, expressed as Ki, was 8.1 nM.

In the case of `CCn1nc(C)c(Cl)c1-c1nc(-c2cc(C(N)=O)cc3c2cnn3C)n[nH]1` [Example C04, 4-[5-(4-chloro-1-ethyl-3-methyl-1H-pyrazol-5-yl)-1H-1,2,4-triazol-3-yl]-1-methyl-1H-indazole-6-carboxamide], the concentration for a half-maximal effect (EC50) at STING [1] was found to be 250 nM; on STING [2] it was 240 nM. For the same compound, the Ki on R232-STING is 13.3 nM.

With `CCn1nc(C)c(F)c1-c1nc(-c2cc(C(N)=O)cc3c2cnn3CCN2CCOCC2)n[nH]1` [Example C05, 4-[5-(1-ethyl-4-fluoro-3-methyl-1H-pyrazol-5-yl)-1H-1,2,4-triazol-3-yl]-1-[2-(morpholin-4-yl)ethyl]-1H-indazole-6-carboxamide], the half-maximal effective concentration (EC50) on STING [1] is 31600 nM; on STING [2] it was 27400 nM. For the same compound, on R232-STING, the inhibition constant (Ki) came to 165 nM.

`CCn1nc(C)c(F)c1-c1nc(-c2cc(C(N)=O)cc3c2cnn3CCCN2CCOCC2)n[nH]1` [Example C06, 4-[5-(1-ethyl-4-fluoro-3-methyl-1H-pyrazol-5-yl)-1H-1,2,4-triazol-3-yl]-1-[3-(morpholin-4-yl)propyl]-1H-indazole-6-carboxamide]: the half-maximal effective concentration (EC50) at STING [1] was determined as 96700 nM; on STING [2] it was 92800 nM. Also, the affinity at R232-STING, expressed as Ki, was 277 nM.

With `CCn1nc(C)c(F)c1-c1n[nH]c(-c2nc(C(N)=O)cc3c2cnn3C)n1` [Example C08, 4-[3-(1-ethyl-4-fluoro-3-methyl-1H-pyrazol-5-yl)-1H-1,2,4-triazol-5-yl]-1-methyl-1H-pyrazolo[4,3-c]pyridine-6-carboxamide], the 50% effective concentration (EC50) on STING [1] came to 140 nM; at STING [2], 130 nM. This compound yielded a Ki on R232-STING of 4.7 nM.

Turning to `Cc1cc(-c2nc(-c3nc(C(N)=O)cc4c3cnn4C)n(C)n2)n(CCC(=O)O)n1` [Example C09, 3-{5-[5-(6-carbamoyl-1-methyl-1H-pyrazolo[4,3-c]pyridin-4-yl)-1-methyl-1H-1,2,4-triazol-3-yl]-3-methyl-1H-pyrazol-1-yl}propanoic acid], the figures for the half-maximal effective concentration (EC50) at STING [1] and on STING [2] were 15100 nM and 12300 nM, respectively. At R232-STING, this compound returned a Ki of 1.4 nM.

`CCn1nc(C)cc1-c1n[nH]c(-c2cc(C(N)=O)cc3c2cnn3CCN(C)CC(F)(F)F)n1` [Example D05, 4-[3-(1-ethyl-3-methyl-1H-pyrazol-5-yl)-1H-1,2,4-triazol-5-yl]-1-{2-[methyl(2,2,2-trifluoroethyl)amino]ethyl}-1H-indazole-6-carboxamide formic acid salt]: the EC50 on STING [1] is 20200 nM; at STING [2] it was 19900 nM. The Ki on R232-STING was 232 nM.

Turning to `CCn1nc(C)cc1-c1n[nH]c(-c2cc(C(N)=O)cc3c2cnn3C(C)CN2CCOCC2)n1` (stereo not drawn) [Example D06, 4-[5-(1-ethyl-3-methyl-1H-pyrazol-5-yl)-4H-1,2,4-triazol-3-yl]-1-[1-(morpholin-4-yl)propan-2-yl]-1H-indazole-6-carboxamide], the values for the concentration giving a half-maximal response (EC50) at STING [1] and at STING [2] were 82900 nM and not below 100000 nM, respectively. In addition, at R232-STING, the Ki was 301 nM.

As for `CCn1nc(C)cc1-c1n[nH]c(-c2c(F)c(C(N)=O)cc3c2cnn3C)n1` [Example E01, 4-[3-(1-ethyl-3-methyl-1H-pyrazol-5-yl)-1H-1,2,4-triazol-5-yl]-5-fluoro-1-methyl-1H-indazole-6-carboxamide], the concentration giving a half-maximal response (EC50) on STING [1] was found to be 640 nM; at STING [2], 650 nM. This compound gave a Ki on R232-STING of 28.7 nM.

In the case of `CCn1nc(C)c(F)c1-c1nc(-c2cc(C(N)=O)cn3c(C)ncc23)n[nH]1` [Example F01, 8-[5-(1-ethyl-4-fluoro-3-methyl-1H-pyrazol-5-yl)-1H-1,2,4-triazol-3-yl]-3-methylimidazo[1,5-a]pyridine-6-carboxamide], the EC50 at STING [1] was determined as 770 nM; at STING [2], 680 nM. For the same compound, on R232-STING, the Ki came to 92.7 nM.

For `CCn1nc(C)c(F)c1-c1c[nH]c(-c2cc(C(N)=O)cc3c2cnn3C)n1` [Example G02], the half-maximal effective concentration (EC50) at STING [1] stood at 1160 nM; on STING [2] it was 1180 nM. The compound also gave an inhibition constant Ki at R232-STING of 30.4 nM.

Consider `CCn1nc(C)cc1-c1csc(-c2cc(C(N)=O)cc3c2cnn3C)n1` [Example H01, 4-[4-(1-ethyl-3-methyl-1H-pyrazol-5-yl)-1,3-thiazol-2-yl]-1-methyl-1H-indazole-6-carboxamide], for which the 50% effective concentration (EC50) on STING [1] was determined as 10800 nM; at STING [2], 7170 nM. In addition, the Ki on R232-STING came to 87.6 nM.

In the case of `CCn1nc(C)cc1-c1nc(-c2nc(C(N)=O)cc3c2cnn3C)n(C)n1` [Example J01, 4-[3-(1-ethyl-3-methyl-1H-pyrazol-5-yl)-1-methyl-1H-1,2,4-triazol-5-yl]-1-methyl-1H-pyrazolo[4,3-c]pyridine-6-carboxamide], the concentration for a half-maximal effect (EC50) at STING [1] worked out at 530 nM; at STING [2], 510 nM. Moreover, the Ki on R232-STING was found to be 14.2 nM.

Turning to `CCn1nc(C)c(F)c1-c1nc(-c2nc(C(N)=O)cc3c2cnn3CCN2CCC(C#N)CC2)n(C)n1` [Example J02], the 50% effective concentration (EC50) at STING [1] worked out at 3600 nM; at STING [2] it was 2760 nM. This compound had an inhibitory constant (Ki) at R232-STING of 32.4 nM.

Take `CCn1nc(C)c(F)c1-c1nc(-c2nc(C(N)=O)cc3c2cnn3C)n(C)n1` [Example J03]: the EC50 on STING [1] amounted to 630 nM; at STING [2], 760 nM. The Ki on R232-STING turned out to be 6.8 nM.

With `CCn1nc(C)cc1-c1n[nH]c(-c2nc(C(N)=O)cc3c2cnn3C)n1` [Example K01, 4-[3-(1-ethyl-3-methyl-1H-pyrazol-5-yl)-1H-1,2,4-triazol-5-yl]-1-methyl-1H-pyrazolo[4,3-c]pyridine-6-carboxamide], the EC50 is 170 nM at STING [1] and 180 nM on STING [2]. This compound also yielded an inhibition constant (Ki) at R232-STING of 16 nM.

On to `CCn1nc(C)cc1-c1n[nH]c(-c2cc(C(N)=O)cc3c(C)n[nH]c23)n1` [Example L01, 7-[3-(1-ethyl-3-methyl-1H-pyrazol-5-yl)-1H-1,2,4-triazol-5-yl]-3-methyl-1H-indazole-5-carboxamide], for which the EC50 at STING [1] turned out to be 3090 nM; at STING [2], 3250 nM. On R232-STING, this compound had an inhibition constant Ki of 66.2 nM.

As for `CCn1nc(C)cc1-c1n[nH]c(-c2cc(C(N)=O)cc3c2cnn3CCN2CC(F)C2)n1` [Example M01, 4-[3-(1-ethyl-3-methyl-1H-pyrazol-5-yl)-1H-1,2,4-triazol-5-yl]-1-[2-(3-fluoroazetidin-1-yl)ethyl]-1H-indazole-6-carboxamide trifluoroacetic acid salt], the results for the half-maximal effective concentration (EC50) on STING [1] and on STING [2] were 77300 nM and 81900 nM, respectively. This compound showed an inhibitory constant (Ki) on R232-STING of 501 nM.

Regarding `CCn1nc(C)cc1-c1n[nH]c(-c2cc(C(N)=O)cc3c2cnn3CCN2CCC(F)(F)CC2)n1` [Example M02], the EC50 stood at 16600 nM at STING [1] and 22600 nM on STING [2]. In addition, the affinity on R232-STING corresponds to a Ki of 278 nM.

For the compound `CCn1nc(C)cc1-c1n[nH]c(-c2cc(C(N)=O)cc3c2cnn3CCN2CC3CCC(C2)O3)n1` [Example M03], the values for the concentration giving a half-maximal response (EC50) at STING [1] and on STING [2] were 32100 nM and 28500 nM, respectively. In addition, the affinity on R232-STING, expressed as Ki, was 159 nM.

On to `CCn1nc(C)cc1-c1n[nH]c(-c2cc(C(N)=O)cc3c2cnn3CCN2C[C@H](C)OC[C@@H]2C)n1` [Example M04], for which the EC50 at STING [1] came to 28000 nM; on STING [2] it was 28600 nM. On R232-STING, this compound had a Ki of 306 nM.

As to `CCn1nc(C)cc1-c1n[nH]c(-c2cc(C(N)=O)cc3c2cnn3CC(=O)O)n1` [Example P01, {6-carbamoyl-4-[3-(1-ethyl-3-methyl-1H-pyrazol-5-yl)-1H-1,2,4-triazol-5-yl]-1H-indazol-1-yl}acetic acid], the concentration for a half-maximal effect (EC50) at STING [1] was 75600 nM; on STING [2], not below 100000 nM. The Ki at R232-STING was determined as 241 nM.
